Results as given in patent US8859615B2, “Compounds, compositions and methods for reducing toxicity and treating or preventing diseases” (priority 2008, dated 2014).
“Also recorded” adds a separate entry of the source. Like-named read-outs stand apart in the source and are kept apart here.

What was measured:
leukemic CCRF CEM cells = experiment: Precursor incorporation into DNA, RNA and protein (Table 9); type: cell-based, human
Experimental: The radioactive tracer studies were carried out as described by Chou T C, et al. Cancer Res. 43: 3074-3079, 1983.

human PMBC lymphocytes = experiment: Time course of effects on proliferation of human lymphocytes (XTT and CCK-8; Table 6); type: cell-based; conditions: Lymphocyte, read-out: Dm
Experimental: Absorbance was measured by Powerwave a XS microplate spectrophotometer.
The effect of compounds of the invention on the proliferation of human lymphocytes at different time points are shown in Table 6 as results of XTT and CCK-8 tetrazolium assays following 24-hour, 72-hour, and 120-hour incubation. […] Cultured human PMBC lymphocytes were used in the assay. The procedures employed are taught in the General Biological Methods section.

[1] = tested on: CCRF-CEM/VBL100 vinblastine-resistant cells; experiment: In vitro cytotoxicity against vinblastine-resistant CCRF-CEM subline; type: cell-based, human; conditions: for IC50: Homo sapiens, CCRF-CEM, 72 h; for fold of cross-resistance (CCRF-CEM/Vinblastine vs parent cell line): Table 3D, given as x or -fold
[2] = tested on: CCRF-CEM human T-cell acute lymphoblastic leukemia cells; experiment: In vitro cytotoxicity against CCRF-CEM (XTT / CCK-8 tetrazolium assay, 72 hr); conditions: for IC50: Homo sapiens
[3] = Human PBMC lymphocyte viability by actual cell counts (hemacytometer; Tables 8A, 8B, FIG. 9); type: cell-based; conditions: human
Source text: FIGS. 9A & 9B show effects of panaxytriol and Compound D, respectively, in varying doses at 24 (▪), 72 (●), and 120 (▴) hours on human PBMC lymphocyte survival based on actual cell counts. In both cases, lower amounts of the compounds increase cell proliferation. […] Cell counts in controls without active agent were: at 24 hrs: 75.4%; at 72 hrs: 93.0%; and at 120 hrs: 85.7%. FIG. 9 parallel the experiments in FIG. 8 but used a different method to determine cell survival; the method used in FIG. 9 was actual cell counting using a hemocytometer and microscope.
The effects of panaxytriol and Compound D on the viability of normal human PBMC lymphocytes shown in Tables 8A and 8B were determined using hemacytometer/microscope determinations. PBMC cells were obtained fresh from the New York Blood Center, New York, N.Y. 10021 (Dr. S. B. Jiang). Cell counts were performed in duplicate for 0, 0.1, 0.3, 1.0, 3.0, and 10.0 μM of each compound at the end of 24 hr, 72 hr, and 120 hr incubations. Incubation was carried out in RPMI 1640 medium (GIBCO/BRL) with 10% heat inactivated fetal bovine serum. […] Acad. Sci. USA 98: 8113-8118, 2001.

[4] = tested on: CCRF-CEM subline resistant to TAXOL; experiment: In vitro cytotoxicity against TAXOL-resistant CCRF-CEM subline; type: cell-based, human; conditions: for IC50: Homo sapiens, CCRF-CEM; for fold of cross-resistance (CCRF-CEM/TAXOL vs parent cell line): Table 3D, given as x or -fold
[5] = tested on: Rat pheochromocytoma cells (PC12 cells); experiment: Neurite outgrowth with NGF; type: cell-based; conditions: 50 ng/mL NGF, 60 μM panaxytriol, 96 hr, vs NGF only
Experimental: Rat pheochromocytoma cells (PC12 cells) were treated with 50 ng/mL of nerve growth factor (NGF) and with 60 μM panaxytriol for 96 hr. The cells were then compared with a similarly prepared control, lacking panaxytriol. […] This finding confirms that panaxytriol is useful for treating or preventing a neurotrophic disorder.

[6] = Homo sapiens, CCRF-CEM, 100 μM, 60 min, ↓ (inhibition), read-out: [3H] Leu → Protein (% Activation ↑ or Inhibition ↓)
[7] = low concentration (panaxytriol 30 μM, Compound D 6 μM), 15 min incubation
[8] = read-out: IC50 CCRF-CEM/Vinblastine
[9] = CCRF-CEM, 72 h, read-out: CCRF-CEM (IC50 in μM), Table 3A-2, CCK-8, 72-hr exposure
[10] = CCRF-CEM, 72 h, read-out: IC50 CCRF-CEM, Table 3D, CCK-8, 72-hr incubation
[11] = 72 h, read-out: IC50 CCRF-CEM/TAXOL

C=C[C@H](O)C#CC#CC[C@H]1OC(C)(C)O[C@@H]1CCCCCCC [Compound (D)]
effect on protein synthesis (leukemic CCRF CEM cells): inhibitory effects | [3H]-AdR → RNA (% Activation ↑ or Inhibition ↓) (leukemic CCRF CEM cells; 6 μM, 15 min, ↑ (activation)): 35.3 ↑ % | [3H]-dThd → DNA (% Activation ↑ or Inhibition ↓) (leukemic CCRF CEM cells; 6 μM, 15 min, ↑ (activation)): 13.2 ↑ % | [3H]-AdR → RNA (% Activation ↑ or Inhibition ↓) (leukemic CCRF CEM cells; 100 μM, 60 min, ↓ (inhibition)): 72.5 ↓ % | [3H]-dThd → DNA (% Activation ↑ or Inhibition ↓) (leukemic CCRF CEM cells; 100 μM, 60 min, ↓ (inhibition)): 69.5 ↓ % | effect on DNA and RNA synthesis (leukemic CCRF CEM cells; 100 μM, 60 min incubation): inhibitory | inhibition at 6 µM (leukemic CCRF CEM cells; Homo sapiens, CCRF-CEM, 6 μM, 15 min, ↓ (inhibition), read-out: [3H] Leu → Protein (% Activation ↑ or Inhibition ↓)): 45.2% | inhibition at 100 µM (leukemic CCRF CEM cells; [6]): 69.5% | effect on DNA and RNA synthesis (leukemic CCRF CEM cells; [7]): activate | EC50 (human PMBC lymphocytes; 24 hr incubation): 1070 nM | EC50 (human PMBC lymphocytes; 72 hr incubation): 1520 nM | EC50 (human PMBC lymphocytes; 120 hr incubation): 1760 nM | IC50 ([1]; Table 3A-2, CCK-8, 72-hr exposure, read-out: CCRF-CEM/VBL (IC50 in μM)): 2.55 µM | IC50 [1, 8]: 0.947 µM | cross-resistance to TAXOL or vinblastine ([1]; TAXOL- or vinblastine-resistant (MDR) sublines): do not appear to be cross-resistant to TAXOL or vinblastine | Fold of resistance (IC50 ratio CCRF-CEM/VBL vs CCRF-CEM) ([1]; Table 3A-2): 2.24 fold | analog is fold more potent (than Compound (A)) ([1]; Table 3A, CCRF-CEM/VBL): (analog is 1.19-fold | fold of cross-resistance (CCRF-CEM/Vinblastine vs parent cell line) [1]: 1.98 fold | anti-cancer activity in the in vitro cytotoxicity assay [2]: active against cancer | IC50 [2, 9]: 1.14 µM | IC50 [2, 10]: 0.478 µM | IC50 ([2]; CCRF-CEM, read-out: IC50 (in μM), cytotoxic potency against cancer cell line growth in vitro, Table 3C, cell line not given): 0.48 µM | potency relative to Compound (A) in vitro ([2]; Table 3A): about 1.44 fold | analog is fold more potent (than Compound (A)) ([2]; Table 3A, CCRF-CEM): is 1.68-fold | viability at 24 h, 0.1 µM [3]: 101% | viability at 24 h, 0.3 µM [3]: 118% | viability at 24 h, 1 µM [3]: 78.4% | viability at 24 h, 3 µM [3]: 90.5% | viability at 24 h, 10 µM [3]: 7.5% | viability at 72 h, 0.1 µM [3]: 116% | viability at 72 h, 0.3 µM [3]: 108% | viability at 72 h, 1 µM [3]: 89.7% | viability at 72 h, 3 µM [3]: 66.8% | viability at 72 h, 10 µM [3]: 33.2% | viability at 120 h, 0.1 µM [3]: 78.2% | viability at 120 h, 0.3 µM [3]: 73.6% | viability at 120 h, 1 µM [3]: 102% | viability at 120 h, 3 µM [3]: 68% | viability at 120 h, 10 µM [3]: 27.4% | IC50 [4, 11]: 1.03 µM | IC50 ([4]; Table 3A-2, CCK-8, 72-hr exposure, read-out: CCRF-CEM/TAXOL (IC50 in μM)): 1.02 µM | Fold of resistance (IC50 ratio CCRF-CEM/TAXOL vs CCRF-CEM) ([4]; Table 3A-2): 0.90 fold | fold of cross-resistance (CCRF-CEM/TAXOL vs parent cell line) [4]: 2.17 fold

C=C[C@@H](O)C#CC#CC[C@@H](O)[C@H](O)CCCCCCC [panaxytriol]
neurite outgrowth [5]: enhanced neurite outgrowth; also recorded: significant neurite outgrowth | effect on protein synthesis (leukemic CCRF CEM cells): inhibitory effects | [3H]-AdR → RNA (% Activation ↑ or Inhibition ↓) (leukemic CCRF CEM cells; 30 μM, 15 min, ↑ (activation)): 38.0 ↑ % | [3H]-dThd → DNA (% Activation ↑ or Inhibition ↓) (leukemic CCRF CEM cells; 30 μM, 15 min, ↑ (activation)): 21.3 ↑ % | [3H]-AdR → RNA (% Activation ↑ or Inhibition ↓) (leukemic CCRF CEM cells; 100 μM, 60 min, ↓ (inhibition)): 74.4 ↓ % | [3H]-dThd → DNA (% Activation ↑ or Inhibition ↓) (leukemic CCRF CEM cells; 100 μM, 60 min, ↓ (inhibition)): 67.8 ↓ % | effect on DNA and RNA synthesis (leukemic CCRF CEM cells; 100 μM, 60 min incubation): inhibitory | inhibition at 30 µM (leukemic CCRF CEM cells; Homo sapiens, CCRF-CEM, 30 μM, 15 min, ↓ (inhibition), read-out: [3H] Leu → Protein (% Activation ↑ or Inhibition ↓)): 77.8% | inhibition at 100 µM (leukemic CCRF CEM cells; [6]): 67.8% | effect on DNA and RNA synthesis (leukemic CCRF CEM cells; [7]): activate | EC50 (human PMBC lymphocytes; 24 hr incubation): 1640 nM | EC50 (human PMBC lymphocytes; 72 hr incubation): 3480 nM | EC50 (human PMBC lymphocytes; 120 hr incubation): 3160 nM | IC50 ([1]; read-out: CCRF-CEM/VBL (IC50 in μM)): 4.43 µM | IC50 ([1]; read-out: IC50 CCRF ± CEM/VBL): 14.6 ± 6.92 µM | IC50 [1, 8]: 6.39 µM | fold resistance in brackets (IC50 CCRF-CEM/VBL vs CCRF-CEM) ([1]; Table 3): 1.20 x | Fold of resistance (IC50 ratio CCRF-CEM/VBL vs CCRF-CEM) ([1]; Table 3A-2): 1.20 fold | fold of cross-resistance (CCRF-CEM/Vinblastine vs parent cell line) [1]: 1.27 fold | IC50 [2, 9]: 3.68 µM | IC50 ([2]; CCRF-CEM, 72 h, read-out: IC50 CCRF-CEM, Table 3, XTT, 72-hour): 12.1 ± 1.57 µM | IC50 [2, 10]: 5.04 ± 0.86 µM | viability at 24 h, 0.1 µM ([3]; 0.1 μM, 24-hrs, read-out: viable cells relative to the starting point (control)): 121% | viability at 72 h, 0.1 µM ([3]; 0.1 μM, 72-hrs, read-out: viable cells relative to the starting point (control)): 113% | viability at 120 h, 0.1 µM ([3]; 0.1 μM, 120-hrs, read-out: viable cells relative to the starting point (control)): 110% | viability at 24 h, 0.3 µM ([3]; 0.3 μM, 24-hrs, read-out: viable cells relative to the starting point (control)): 140% | viability at 72 h, 0.3 µM ([3]; 0.3 μM, 72-hrs, read-out: viable cells relative to the starting point (control)): 95.8% | viability at 120 h, 0.3 µM ([3]; 0.3 μM, 120-hrs, read-out: viable cells relative to the starting point (control)): 105% | viability at 24 h, 1 µM ([3]; 1.0 μM, 24-hrs, read-out: viable cells relative to the starting point (control)): 123% | viability at 72 h, 1 µM ([3]; 1.0 μM, 72-hrs, read-out: viable cells relative to the starting point (control)): 102% | viability at 120 h, 1 µM ([3]; 1.0 μM, 120-hrs, read-out: viable cells relative to the starting point (control)): 101% | viability at 24 h, 3 µM ([3]; 3.0 μM, 24-hrs, read-out: viable cells relative to the starting point (control)): 104% | viability at 72 h, 3 µM ([3]; 3.0 μM, 72-hrs, read-out: viable cells relative to the starting point (control)): 82.2% | viability at 120 h, 3 µM ([3]; 3.0 μM, 120-hrs, read-out: viable cells relative to the starting point (control)): 74.1% | viability at 24 h, 10 µM ([3]; 10.0 μM, 24-hrs, read-out: viable cells relative to the starting point (control)): 27.7% | viability at 72 h, 10 µM ([3]; 10.0 μM, 72-hrs, read-out: viable cells relative to the starting point (control)): 28.5% | viability at 120 h, 10 µM ([3]; 10.0 μM, 120-hrs, read-out: viable cells relative to the starting point (control)): 35.5% | IC50 ([4]; 72 h, read-out: CCRF-CEM/TAXOL (IC50 in μM)): 3.09 µM | IC50 [4, 11]: 5.22 µM | Fold of resistance (IC50 ratio CCRF-CEM/TAXOL vs CCRF-CEM) ([4]; Table 3A-2): 0.84 fold | fold of cross-resistance (CCRF-CEM/TAXOL vs parent cell line) [4]: 1.04 fold
